# PubChem BioAssay AID489032 (Sanford-Burnham Center for Chemical Genomics, 2010)
# The source made the active and inactive calls. How the calls were made is not given here.
# System: UPR adaptive arm reporter cells, luciferase luminescence
# Test: activators of adaptive UPR signalling, dose response, cell-based, luciferase luminescence (AID 489032)
row,SMILES,EC50
1,Nc1cccc(-c2nc3cc(S(=O)(=O)c4ccc5oc(-c6cccc(N)c6)nc5c4)ccc3o2)c1,24.1 µM (inactive)
2,COc1cccc(-c2c(-c3cc(OC)cc(OC)c3)n(C)c3ccc(-c4cnc(N5CCOCC5)nc4)cc23)c1,54.9 µM (inactive)
3,Oc1ccc(Br)cc1/C=N/Nc1ccccn1,> 80 µM (inactive)
4,CCc1ccc(-n2c(SCC(=O)c3ccc4c(c3)NC(=O)CO4)nc3ccccc3c2=O)cc1,> 80 µM (inactive)
5,NCCOc1ccc(C23CC4CC(CC(C4)C2)C3)cc1,> 80 µM (inactive)
6,Brc1cc(Br)c2ncnc(N3CCCCC3)c2c1,44.5 µM (inactive)
7,CCCCCC(=O)Nc1ccc(C(=O)N/N=C/c2ccc([N+](=O)[O-])cc2)cc1,> 80 µM (inactive)
8,COc1ccc2[nH]c3c(c2c1)CCN1C(=O)C(CC(=O)NC/C=C(\C)CCC=C(C)C)C[C@H](C(=O)N(C(C)C)C(C)C)[C@@]31C (stereo not given in full),60.1 µM (inactive)
9,CC1(C)CC[C@@]23CC[C@]4(C)[C@@](OC2=O)(C3C1)[C@H]1O[C@H]1C1[C@@]2(C)CC[C@H](O)C(C)(C)C2CC[C@]14C (stereo not given in full),> 80 µM (inactive)
10,COc1cc(-c2ccc3oc(-c4ccsc4)cc3c2)cc(OC)c1OC,> 80 µM (inactive)
11,CCOc1ccccc1CNC(=O)C1CCN(c2nnc(C)c3c(C)n(-c4ccc(C)cc4)nc23)CC1,> 80 µM (inactive)
12,COc1ccc(N=Cc2c(O)c3ccccc3oc2=O)cc1,12.2 µM
13,O=C(Nc1ccc(-c2nc3cc(NC(=O)c4cccs4)ccc3o2)cc1)c1cccs1,4.31 µM
14,O=C(NCC1CCCO1)c1nn2c(C(F)(F)F)cc(-c3cc(Br)cs3)nc2c1Br (stereo not given),> 80 µM (inactive)
15,C=CCn1c(O)c(C2=c3ccccc3=NC2=O)sc1=Nc1ccc(O)cc1,38.7 µM (inactive)
16,COc1cc(/C=C(\C#N)c2nc3ccccc3[nH]2)cc(Br)c1OCc1ccc(F)cc1,> 80 µM (inactive)
17,O=c1[nH]c(O)c(/C=C2/C=CC(c3cc(Cl)ccc3Cl)=N2)c(=O)[nH]1,9.68 µM
18,CC1CCN(Cc2c(C(=O)N/N=C/c3ccc(C(C)C)cc3)nnn2-c2nonc2N)CC1,> 80 µM (inactive)
19,CCCCNc1c(-c2ccc(-c3ccc(C(C)=O)cc3)c(OC)c2)nc2cc(C)ccn12,> 80 µM (inactive)
20,CC(C)=CCc1c2c(c3occ(-c4ccc(O)cc4)c(=O)c3c1O)C=CC(C)(C)O2,> 80 µM (inactive)
21,CCOc1ccccc1-n1c(SCC(=O)Nc2ccc(CC)cc2)nc2n[nH]c(C)c2c1=N,5.91 µM
22,Cc1nc(NC(=O)CSc2ccc(-c3nc4ccccc4[nH]3)cn2)sc1C,> 80 µM (inactive)
23,Cc1cc(C)c2c(CCl)cc(=O)oc2c1,> 80 µM (inactive)

row,SMILES,EC50
1,COc1ccc(-c2sc3ccccc3c2-c2ccc(OCCN(C)C)cc2)cc1,> 80 µM (inactive)
2,CCOC(=O)c1sc(-c2ccccc2)cc1NC(=O)Nc1ccc([N+](=O)[O-])cc1,24.2 µM (inactive)
3,COc1ccc(-c2cc(=O)oc3c(C)c(OC(=O)c4cccs4)ccc23)cc1,> 80 µM (inactive)
4,C=CCOc1ccc(/C=N/N2C(=O)C(CC(=O)Nc3ccc(F)cc3F)SC2=NC)cc1 (stereo not given),> 80 µM (inactive)
5,Cc1cc(C)c2c(n1)sc1c(-c3ccccc3)c(C#N)c(N)nc12,> 80 µM (inactive)
6,Cc1cnc(NC(=O)c2cc3c(C)nn(Cc4ccccc4Cl)c3s2)s1,> 80 µM (inactive)
7,CC1=CC(C)[C@H](/C=N/n2c(=O)[nH]c3c([nH]c4ccc(C)cc43)c2=O)C(C)C1 (stereo not given in full),> 80 µM (inactive)
8,COc1ccc(CCn2c(C3CCCCC3)nc3c(c(=O)c4ccccc4n3C)c2=O)cc1,> 80 µM (inactive)
9,O=C(CC1C[C@H](C(=O)N2CCCCC2)[C@@]2(CCc3ccccc3)c3[nH]c4ccccc4c3CCN2C1=O)NCCC1=CCCCC1 (stereo not given in full),43 µM (inactive)
10,CCOC(=O)c1nnn2c1nc(Nc1cccc(C(F)(F)F)c1)c1ccccc12,17.2 µM
11,CC1=C(CC/C(C)=N/NC(N)=S)C(C)(C)CCC1,29.3 µM (inactive)
12,Cc1cc(SCC(=O)c2ccc(O)c(O)c2)n2nc(C)c(-c3ccccc3)c2n1,> 80 µM (inactive)
13,Cc1cc(NC(=O)CSc2ccc(-c3nc4cc(C)c(C)cc4[nH]3)cn2)no1,> 80 µM (inactive)
14,Cc1ccc2nc(N(CCCN(C)C)C(=O)c3ccc(S(=O)(=O)N4CCc5ccccc5C4)cc3)sc2c1,> 80 µM (inactive)
15,COc1cc(C(=O)Nc2nc(-c3ccc(Cl)cc3)c(C)s2)ccc1OCC(=O)Nc1ccc(F)cc1,> 80 µM (inactive)
16,Cc1ccc(CN2C(=O)C(=O)c3cc(C)ccc32)cc1,58.6 µM (inactive)
17,O=Cc1cc2ccccc2nc1SCc1ccc(Cl)c(Cl)c1,52.3 µM (inactive)
18,CCOC(=O)c1nn(-c2ccc(OCC)cc2)c2nc(-c3ccco3)c(C#N)c(=O)n12,58.9 µM (inactive)
19,CCCNC(=O)c1c(N)n(-c2ccc3c(c2)OCO3)c2nc3ccccc3nc12,> 80 µM (inactive)
20,O=C(C[n+]1ccc(-c2cc(C(=O)Nc3cccc(C(F)(F)F)c3)c3ccccc3n2)cc1)c1cccc([N+](=O)[O-])c1,> 80 µM (inactive)
21,CCOC(=O)c1c(NC(=O)c2cc3n(n2)C(C(F)(F)F)CC(c2cccs2)N3)sc(C)c1C (stereo not given),15.9 µM
22,CCC(=O)Nc1ccc(-c2cc(-c3ccccc3)nc(-c3ccc(NC(=O)CC)cc3)n2)cc1,> 80 µM (inactive)
23,CCOc1ccc(NC(=S)NC(=O)/C=C/c2ccc(OC)c(OC)c2)c([N+](=O)[O-])c1,> 80 µM (inactive)

row,SMILES,EC50
1,COC(=O)Cc1csc(/N=C/c2c(O)n(-c3cccc(C(F)(F)F)c3)c(=O)c3ccccc23)n1,> 80 µM (inactive)
2,N#Cc1cnn2c1nc(N1CCCCC1)c1ccccc12,> 80 µM (inactive)
3,NCCc1c(-c2ccccc2)n(-c2ccccc2)c2ccccc12,> 80 µM (inactive)
4,CCN(CC)c1ccc(/C=C/[N+](=O)[O-])cc1,19.4 µM
5,CCN(CC)S(=O)(=O)c1ccc2c(c1)C(=NO)c1cc(S(=O)(=O)N(CC)CC)ccc1-2,18.6 µM
6,CC(C)(C)c1csc(NC(=O)c2ccc(Cl)s2)n1,> 80 µM (inactive)
7,CCOC(=S)SCC(=O)Nc1nc(-c2ccc(Br)cc2)cs1,> 80 µM (inactive)
8,Cc1nn(Cc2c(Cl)cccc2Cl)c(C)c1NC(=O)c1cn(-c2ccccc2)nc1-c1ccccc1,> 80 µM (inactive)
9,O=C1c2ccccc2C(=O)N1/N=C/c1ccc(O)c(O)c1,> 80 µM (inactive)
10,CCc1cc2c(C)ccc(C)c2nc1SCC(=O)Nc1c[nH]c(=O)[nH]c1=O,> 80 µM (inactive)
11,O=C(Nc1ccc(NC(=O)c2sc3ccccc3c2Cl)cc1Cl)c1ccco1,22 µM (inactive)
12,Cc1cccn2c(=O)c3cc(C(=O)NC4CCCCCC4)sc3nc12,> 80 µM (inactive)
13,Oc1ccc(/C=N/Nc2ncnc3c2ncn3Cc2ccccc2)cc1O,11 µM
14,CCn1c(/C=C/c2c(C)[nH]c3ccccc23)nc2ccccc2c1=O,> 80 µM (inactive)
15,Brc1cc2c(cc1/C=N/Nc1nc3ccccc3s1)OCO2,57 µM (inactive)
16,CC1CCCCC1N1CN=C(Nc2nc3ccccc3s2)NC1 (stereo not given),> 80 µM (inactive)
17,N#Cc1ccccc1/C=N/Nc1nc(-c2ccccc2)c2cc(Cl)ccc2n1,> 80 µM (inactive)
18,Cc1cc(NC(=O)c2cc(-c3ccncc3)nc3c(C)cccc23)no1,17.7 µM
19,Oc1ccc(/C=N/Nc2cc(N3CCOCC3)nc(N3CCOCC3)n2)cc1O,> 80 µM (inactive)
20,CCOC(=O)/C(=N\Nc1ccc(C(C)=O)cc1)c1csc(Nc2ccccc2)n1,> 80 µM (inactive)
21,Cc1ccc(-c2nnn(CC(=O)N(Cc3cccs3)C(C(=O)NC3CCCCC3)c3ccco3)n2)o1 (stereo not given),> 80 µM (inactive)
22,CC1(C)CC(=O)C(C=Nc2ccc(C(=O)c3ccccc3)cc2N=CC2=C(O)CC(C)(C)CC2=O)=C(O)C1,> 80 µM (inactive)
23,COc1ccc(N=c2oc3ccc(OC)cc3cc2-c2nc3ccccc3[nH]2)cc1,15.3 µM

row,SMILES,EC50
1,CCOc1ccc(/C=C/C(O)=C2/C(=O)NC3(C)CC2c2ccccc2O3)cc1OC (stereo not given),> 80 µM (inactive)
2,COc1cc(CNCCO)cc(Cl)c1OCc1ccc(Cl)cc1Cl,> 80 µM (inactive)
3,OC(CNCC1CCCO1)Cn1c2ccc(Cl)cc2c2cc(Cl)ccc21 (stereo not given),> 80 µM (inactive)
4,N#CCC(=O)N/N=C/c1cn(Cc2ccc3ccccc3c2)c2ccccc12,71 µM (inactive)
5,Cc1ccc(C2=Nc3ccc(Br)cc3C(c3ccncc3)=NN2)cc1,24 µM (inactive)
6,O=C(COc1ccc(Cl)cc1Cl)NN=C1c2ccccc2-c2ccccc21,> 80 µM (inactive)
7,Cn1c(/C=C/c2ccc(Cl)cc2Cl)c([N+](=O)[O-])c(=O)n(C)c1=O,> 80 µM (inactive)
8,COc1cccc2sc(N3CCN(c4nc5ccccc5s4)CC3)nc12,> 80 µM (inactive)
9,O=C1Nc2ccccc2/C1=C/c1ccc([N+](=O)[O-])cc1,> 80 µM (inactive)
10,O=C(NC(=S)Nc1ccc(NC(=O)c2cccs2)cc1)c1cc2ccccc2o1,> 80 µM (inactive)
11,CC(C)N(C(=O)[C@H]1C[C@H](CC(=O)NCc2cccc(C(F)(F)F)c2)C(=O)N2CCc3c([nH]c4ccc(Cl)cc34)[C@]12C)C(C)C,> 80 µM (inactive)
12,Cc1ccc2c(=O)[nH]c(Nc3nc(C)cc(-c4ccccc4)n3)nc2c1,> 80 µM (inactive)
13,COc1ccc(C(=O)/C=C/c2cccs2)c(OC(=O)c2cccc([N+](=O)[O-])c2)c1,> 80 µM (inactive)
14,N#CCC(=O)N/N=C/c1cn(Cc2cccc3ccccc23)c2ccccc12,> 80 µM (inactive)
15,COc1ccc(-c2nc3scc(-c4ccc(OC)c(OC)c4)c3c(=O)o2)cc1,> 80 µM (inactive)
16,CN(C)C(=O)CCc1ccc2c3c([nH]c2c1)[C@]1(CCc2ccccc2)[C@@H](C(=O)N2CCCCC2)C[C@H](CC(=O)NCCC2=CCCCC2)C(=O)N1CC3,35.9 µM (inactive)
17,CN(C)CCCn1cnc2c(c1=N)C(c1ccccc1)c1ccc3ccccc3c1O2 (stereo not given),> 80 µM (inactive)
18,COc1ccc2nc(C)cc(SCC(=O)N/N=C/c3cccc4ccccc34)c2c1,17.8 µM
19,CCOC(=O)c1[nH]c2ccc(Cl)cc2c1NC(=O)/C=C/c1ccc2c(c1)OCO2,74.2 µM (inactive)
20,CCCCCCCCCCn1c2c(c(=N)c3c1CCC3)CCC2,24.9 µM (inactive)
21,CCOc1cc(/C=N/NC(N)=S)cc(Br)c1OCc1ccccc1C,> 80 µM (inactive)
